According to patent US20100075907A1, “NEUROMEDIN U RECEPTOR AGONISTS AND USES THEREOF” (priority 2006, published 2010):
No end group written: not given here.

Molecular target: T1, hNMUR1 (Homo sapiens, UniProt Q9HB89)
T1 sequence (Q9HB89 1-426): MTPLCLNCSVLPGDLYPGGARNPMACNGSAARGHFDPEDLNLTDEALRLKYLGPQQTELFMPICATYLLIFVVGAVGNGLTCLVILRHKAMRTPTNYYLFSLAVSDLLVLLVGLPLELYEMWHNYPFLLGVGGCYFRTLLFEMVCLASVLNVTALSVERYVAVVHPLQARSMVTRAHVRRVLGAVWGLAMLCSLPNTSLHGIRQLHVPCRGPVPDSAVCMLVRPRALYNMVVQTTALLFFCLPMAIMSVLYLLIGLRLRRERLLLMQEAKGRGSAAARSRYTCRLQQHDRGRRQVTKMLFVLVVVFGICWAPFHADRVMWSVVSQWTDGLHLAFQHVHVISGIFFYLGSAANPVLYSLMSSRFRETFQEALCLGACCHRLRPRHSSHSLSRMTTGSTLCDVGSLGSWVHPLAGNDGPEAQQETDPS
Assay: 125I-hNMU-25 binding assay, human NMUR1 membranes
Design: expressed in transfected cells; host or cells: HEK-293 FLP-In cells (pcDNA5); HEK-293/aeq17 lines (pIRES-puro) were also made; % inhibition of NMU-25 binding / % Activity: concentration or dose not given beside the values
Procedure: Confluent cell monolayers expressing NMU receptors (the HEK cells described above) were harvested with phosphate buffered saline, collected by centrifugation, and resuspended in membrane buffer (50 mM TrisCl pH 7.4, 5 mM MgCl2, 1× Protease Inhibitor Cocktail, 10 μM phosphoramidon). After the cell pellet was homogenized, the solution was centrifuged at 18,000 rpm for 20 minutes at 4° C. The pellet was resuspended in membrane buffer to yield a final concentration of 0.5-5 μg/μL of membrane and stored at −80° C.
Experiments were performed in assay buffer (25 mM TrisCl, pH 7.4, 10 mM MgCl2, 2 mM EDTA, 1× Protease Inhibitor Cocktail, 100 μg/mL Bacitricin, 10 μM phosphoramidon) in 200 μL volumes in a 96-well format using 2-5 μg of membrane and 0.1 nM ^125I-hNMU-25 (about 12,000 cpm/well). For non-specific binding, 1 μM hNMU-25 was added. About 5 μL of peptides were added to measure antagonist activity, and the entire reaction was incubated at room temperature with shaking for 80 minutes. The reaction was terminated by rapid filtration through 0.3% poly-ethylenimine presoaked Millipore 96-well filter plates and washed with ice-cold buffer (5 mM TrisCl pH 7.4, 10 mM MgCl2, 2.5 mM EDTA, 0.04% Triton X-100). Plates were air-dried overnight at room temperature and recovered radioactivity was determined by standard scintillation counting. IC50 values were determined using GraphPad Prism software.
Concentration-response curves and radioligand-binding data were fitted using Prism (GraphPad Software). Results are summarized below in Tables 8 and 9.

Substance	% Activity (Table 9, HEK-hR1, binding)	IC50 (Table 9, HEK-hR1, binding)	% Activity (Table 8, HEK-hR1, binding)	IC50 (Table 8, HEK-hR1, second (binding) column pair)
H-FWLFRARN-NH2 [Agonist L]	0%	> 1000 nM	–	–
H-YFGWRPRN-NH2 [Agonist C]	–	–	100%	–
WALFRARN-NH2 [Agonist M]	0%	> 1000 nM	–	–
YFWRPRN-NH2 [Agonist A, YFWRPRN-CONH2]	–	–	94%	10 nM
